Data as given in US5519029A, “2-aminoalkyl-5-aminoalkylamino substituted-isoquinoindazole-6(2H)-ones” (Boehringer Mannheim Italia, S.p.A., priority 1993, dated 1996).
Converted amounts (≈) assume the structure as drawn. “Also recorded” adds a separate entry of the source. Where two headings read alike, the source gives them in different places.

Assays:
Lovo/DX [1] = conditions: characterisation of subline (Grandi et al. 1986); cited from earlier work
[2] = tested on: human colon adenocarcinoma cell line (Lovo); assay: MTT cytotoxicity assay, Lovo cell line; assay type: cell-based; conditions: read-out: IC50 LOVO
Method: (§1) The evaluation of the biological activity for the compounds of this invention was performed in vitro and in vivo following the protocols developed by the U.S. National Cancer Institute.
(§2) The evaluation of the in vitro cytotoxic activity of the compounds of the invention was performed using a human colon adenocarcinoma cell line (Lovo) isolated from a metastatic nodule, and a subline expressing multidrug resistance. The subline is resistant to a number of antitumor agents, among which are doxorubicin, VP-16, and vincristine.

[3] = tested on: advanced breast cancer, acute leukemia and lymphoma; conditions: clinical trials; cited from earlier work
[4] = in vivo; cited from earlier work
Lovo/DX [5] = assay: MTT cytotoxicity assay, multidrug-resistant subline Lovo/DX; assay type: cell-based, human; conditions: for IC50: Homo sapiens, read-out: IC50 LOVO/DX; for cross resistance / resistance in Lovo/DX (in words): Lovo/DX subline; for RI (resistance index): ratio of the IC50 for the resistant line cell to the IC50 for the sensitive cell line
Method: as §1, §2

[6] = cited from earlier work; for cardiotoxicity in animals (in words): animal studies
[7] = i.p., non-tumor bearing rats, equieffective antitumor dosages; cited from earlier work
[8] = mostly in patients previously treated with doxorubicin; cited from earlier work
[9] = rat; cited from earlier work
[10] = dose limiting, phase I and phase II; cited from earlier work
[11] = tested on: cell histotypes developing resistance against doxorubicin mediated by overexpression of glycoprotein P; conditions: doxorubicin-resistant cells; cited from earlier work
[12] = Lovo/DX (resistant) cells, MTT assay
[13] = Lovo (sensitive) cells, MTT assay

COc1cc([C@@H]2c3cc4c(cc3[C@@H](O[C@@H]3O[C@@H]5CO[C@@H](C)O[C@H]5[C@H](O)[C@H]3O)[C@H]3COC(=O)[C@H]23)OCO4)cc(OC)c1O [VP-16]
resistance / accumulation in Lovo/DX subline (in words) (Lovo/DX [1]): resistant

O=C1c2c(O)ccc(O)c2C(=O)c2c(NCCNCCO)ccc(NCCNCCO)c21 [MITOXANTRONE, 5,8-dihydroxy-1,4-bis{[2-(2-hydroxyethylamino)ethyl]amino}anthracene-9,10-dione]
IC50 ([2]; LoVo): 0.04 µg/mL (≈ 0.09 µM) | clinical antitumor activity (in words) [3]: particularly promising activity in the treatment of advanced breast cancer, acute leukemia and lymphoma | myelodepressive toxicity (in words) [4]: remarkable myelodepressive toxicity | IC50 (Lovo/DX [5]; LoVo/DX): 0.9 µg/mL (≈ 2.02 µM) | cross resistance / resistance in Lovo/DX (in words) (Lovo/DX [5]): acquired resistance | cardiotoxicity in animals (in words) [6]: diminished cardiotoxicity in comparison to doxorubicin | delayed toxicity (in words) [7]: delayed toxicity is observed only with mitoxantrone | clinical cardiotoxicity (in words) [8]: some clinical cardiotoxicity has been observed

O=C1c2c(O)cccc2-c2nn(CCNCCO)c3ccc(NCCNCCO)c1c23 [CI-941]
nephrotoxicity (in words) [9]: marked nephrotoxicity | neutropenia, W.H.O. grade [10]: 4 W.H.O. grade

COc1cccc2c1C(=O)c1c(O)c3c(c(O)c1C2=O)C[C@@](O)(C(=O)CO)C[C@@H]3O[C@H]1C[C@H](N)[C@H](O)[C@H](C)O1 [DOXORUBICIN]
IC50 ([2]; LoVo): 0.9 µg/mL (≈ 1.66 µM) | IC50 (Lovo/DX [5]; [12]): 66.6 µg/mL (≈ 123 µM) | RI (resistance index) (Lovo/DX [5]): 74 | resistance / accumulation in Lovo/DX subline (in words) (Lovo/DX [1]): resistant; also recorded: reduced accumulation

CN(C)CCNc1ccc2c3c(nn2CCN(C)C)-c2cnccc2C(=O)c13
IC50 [2, 13]: 0.5 µg/mL (≈ 1.32 µM) | IC50 (Lovo/DX [5]; [12]): 0.9 µg/mL (≈ 2.38 µM) | RI (resistance index) (Lovo/DX [5]): 1.8

CN(C)CCNc1ccc2c3c(nn2CCN)-c2cnccc2C(=O)c13
IC50 [2, 13]: 0.3 µg/mL (≈ 0.856 µM) | IC50 (Lovo/DX [5]; [12]): 5 µg/mL (≈ 14.3 µM) | RI (resistance index) (Lovo/DX [5]): 16.7

CN(C)CCn1nc2c3c(c(NCCN)ccc31)C(=O)c1ccncc1-2
IC50 [2, 13]: 0.5 µg/mL (≈ 1.43 µM) | IC50 (Lovo/DX [5]; [12]): 22.4 µg/mL (≈ 63.9 µM) | RI (resistance index) (Lovo/DX [5]): 44.8

O=C1c2ccccc2C(=O)c2c(NCCNCCO)ccc(NCCNCCO)c21 [ametantrone, 1,4-bis{[2-(2-hydroxyethylamino)ethyl]amino}anthracene-9,10-dione]
myelodepressive toxicity (in words) [4]: remarkable myelodepressive toxicity | cross resistance / resistance in Lovo/DX (in words) (Lovo/DX [5]): acquired resistance | cardiotoxicity in animals (in words) [6]: less cardiotoxic than mitoxantrone | potency relative to mitoxantrone (fold less potent) ([6]; in animals): about 10 fold | cross-resistance (in words) [11]: cross-resistance

CC[C@]1(O)C[C@H]2CN(CCc3c([nH]c4ccccc34)[C@@](C(=O)OC)(c3cc4c(cc3OC)N(C=O)[C@H]3[C@@](O)(C(=O)OC)[C@H](OC(C)=O)[C@]5(CC)C=CCN6CC[C@]43[C@@H]65)C2)C1 [vincristine]
resistance / accumulation in Lovo/DX subline (in words) (Lovo/DX [1]): resistant
